Earlier results, collected in US7833524B2 (priority 2005, dated 2010).

Molecular target: LC/A (Clostridium botulinum, UniProt P0DPI0)
Sequence (P0DPI0 2-448 limits assumed): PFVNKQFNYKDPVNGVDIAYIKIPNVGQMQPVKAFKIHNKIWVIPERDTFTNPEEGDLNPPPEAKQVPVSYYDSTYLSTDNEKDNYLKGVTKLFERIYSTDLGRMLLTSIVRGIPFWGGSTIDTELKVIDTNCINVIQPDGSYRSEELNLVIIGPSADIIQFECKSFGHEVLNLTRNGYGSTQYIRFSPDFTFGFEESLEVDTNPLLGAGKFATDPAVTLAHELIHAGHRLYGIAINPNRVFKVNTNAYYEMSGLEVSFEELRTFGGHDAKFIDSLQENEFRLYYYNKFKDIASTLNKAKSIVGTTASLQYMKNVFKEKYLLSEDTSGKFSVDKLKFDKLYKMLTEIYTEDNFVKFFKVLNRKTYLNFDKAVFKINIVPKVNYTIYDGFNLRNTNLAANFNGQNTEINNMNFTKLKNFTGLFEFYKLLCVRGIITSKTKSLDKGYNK

| Structure (SMILES) | Concentration range that inhibits LC/A |
| --- | --- |
| C[C@H](CS)C(=O)N1CCC[C@H]1C(=O)O [captopril] | mM concentrations |
| CCOC(=O)[C@H](CCc1ccccc1)N[C@@H](C)C(=O)N1CCC[C@H]1C(=O)O [enalapril] | mM concentrations |
